{
  "source": "patent US10918638B2",
  "about": "“Histone deacetylase 6 inhibition for enhancing T-cell function during anti-tumor response and tumor-peptide vaccination” (H. LEE MOFFITT CANCER CENTER AND RESEARCH INSTITUTE, INC., priority 2014, dated 2021)",
  "key": {"[1]": {"system": "Fc-muMCL1 lymphoma cells", "experiment": "Fc-muMCL1 lymphoma tumor growth in C57BL/6 mice", "assay_type": "in vivo", "conditions": "C57BL/6 (WT) mice, 35 mg/kg daily for 16 days vs vehicle", "experimental": "(§1) FIGS. 3A and 3B. […] (FIG. 3A) C57BL/6 or (FIG. 3B) SCID mice were subcutaneous injected with 3×10^6 Fc-muMCL1 lymphoma cells. After tumor appearance, six mice were treated daily with 35 mg/kg of Tubastatin A and four mice received vehicle control, for 16 days. […] To further evaluate whether these in vivo responses were dependent on T-cells, WT or lympho-deficient, lymphoma-bearing mice were treated with an HDAC6 inhibitor. HDAC6 inhibition led to reduced tumor burden in WT mice, which was absent in lympho-deficient mice, highlighting the importance of lymphocytes in the aforementioned in vivo results. Thus, the role of HDAC6 in regulating immune cells during anti-tumor response appears to be more important than the previously reported role as a regulator of Treg function."}, "[2]": {"system": "Fc-muMCL1 lymphoma cells", "experiment": "Fc-muMCL1 lymphoma tumor growth in SCID mice", "assay_type": "in vivo", "conditions": "SCID (lympho-deficient) mice, 35 mg/kg daily for 16 days vs vehicle", "experimental": "as §1"}},
  "data": [
    {"smiles": "CN1CCc2c(c3ccccc3n2Cc2ccc(C(=O)NO)cc2)C1", "note": "[Tubastatin A]", "values": [
      {"measurement": "anti-tumor response / tumor burden", "setting": "[1]", "value": "Enhanced anti-tumor response"},
      {"measurement": "anti-tumor response / tumor burden", "setting": "[2]", "value": "dependent on an intact immune system"}
    ]}
  ]
}
